Earlier results on 80 compounds are cited in Sander's compilation of Henry's law constants (doi:10.1016/s0016-7037(99)00330-0).

SMILES strings stand for the structures.

The data set is described as follows: Henry solubility constant Hcp at 298.15 K (mol/(m3 Pa)). The note with it: reference: Plyasunov and Shock (2000); cited value.
Consider `C#CCC` [1-butyne], for which the “Henry solubility constant Hcp” value was 0.00062.
As for `C=C` [ethene], the “Henry solubility constant Hcp” value was 4.8e-05.
With `C#CCCCC#C` [1,6-heptadiyne], the “Henry solubility constant Hcp” value is 0.0046.
`C=CC(C)C` [3-methyl-1-butene]: the “Henry solubility constant Hcp” value was 1.9e-05.
Take `CC=CCCCC` [2-heptene]: the “Henry solubility constant Hcp” value was 2.3e-05.
Turning to `CCCCCCc1ccccc1` [hexylbenzene], the “Henry solubility constant Hcp” value is 0.0004.
Regarding `CC(C)C(C)(C)O` [2,3-dimethyl-2-butanol], the “Henry solubility constant Hcp” value was 0.38.
Take `Cc1ccccc1` [methylbenzene]: the “Henry solubility constant Hcp” value is 0.0016.
For `CCC(C)(C)O` [2-methyl-2-butanol], the “Henry solubility constant Hcp” value is 0.71.
With `Cc1cc(C)cc(C)c1` [1,3,5-trimethylbenzene], the “Henry solubility constant Hcp” value was 0.0013.
For `Cc1cccc(C)c1` [1,3-dimethylbenzene], the “Henry solubility constant Hcp” value was 0.0014.
In the case of `C#CC=C` [3-buten-1-yne], the “Henry solubility constant Hcp” value is 0.00041.
`CCC(C)(C)CC` [3,3-dimethylpentane]: the “Henry solubility constant Hcp” value was 5.3e-06.
For the compound `C=CCCCCC` [1-heptene], the “Henry solubility constant Hcp” value is 2.5e-05.
On to `CCCC` [butane], for which the “Henry solubility constant Hcp” value was 1.2e-05.
Consider `CCO` [ethanol], for which the “Henry solubility constant Hcp” value was 1.9.
On to `CC(C)C(C)C(C)C` [2,3,4-trimethylpentane], for which the “Henry solubility constant Hcp” value was 4.3e-06.
`CCCCCCCCO` [1-octanol]: the “Henry solubility constant Hcp” value is 0.41.
Regarding `CCC#CCC` [3-hexyne], the “Henry solubility constant Hcp” value was 0.00055.
Regarding `CCC(C)CC` [3-methylpentane], the “Henry solubility constant Hcp” value was 5.9e-06.
Regarding `C#CCCCCCC#C` [1,8-nonadiyne], the “Henry solubility constant Hcp” value is 0.003.
For the compound `CCCC(C)C` [2-methylpentane], the “Henry solubility constant Hcp” value was 5.7e-06.
In the case of `CCCC(C)O` (stereo not given) [2-pentanol], the “Henry solubility constant Hcp” value is 0.65.
With `CCCCC(CC)CO` (stereo not given) [2-ethyl-1-hexanol], the “Henry solubility constant Hcp” value is 0.46.
As to `C1CCCCCC1` [cycloheptane], the “Henry solubility constant Hcp” value is 0.0001.
As for `CCC(C)(C)C` [2,2-dimethylbutane], the “Henry solubility constant Hcp” value is 5.6e-06.
With `CCC(O)CC` [3-pentanol], the “Henry solubility constant Hcp” value is 0.55.
`CCCCc1ccccc1` [butylbenzene]: the “Henry solubility constant Hcp” value is 0.00071.
Turning to `OC1CCCC1` [cyclopentanol], the “Henry solubility constant Hcp” value was 4.2.
`CC1=CC=C(C(C)C)CC1` [1-methyl-4-(1-methylethyl)-1,3-cyclohexadiene]: the “Henry solubility constant Hcp” value is 0.00051.
For the compound `CCCC(C)CC` (stereo not given) [3-methylhexane], the “Henry solubility constant Hcp” value was 4.5e-06.
Take `CCCC(C)(C)C` [2,2-dimethylpentane]: the “Henry solubility constant Hcp” value is 3.1e-06.
Consider `CC1CCCC(C)(C)C1` (stereo not given) [1,1,3-trimethylcyclohexane], for which the “Henry solubility constant Hcp” value was 9.3e-06.
With `CCCCCCC` [heptane], the “Henry solubility constant Hcp” value was 4.9e-06.
Take `Cc1ccc(C)c(C)c1` [1,2,4-trimethylbenzene]: the “Henry solubility constant Hcp” value is 0.0016.
For `CCCC(O)CC` (stereo not given) [3-hexanol], the “Henry solubility constant Hcp” value was 0.42.
For `CCCCCC1CCCC1` [pentylcyclopentane], the “Henry solubility constant Hcp” value is 5.3e-06.
In the case of `C=CCCC` [1-pentene], the “Henry solubility constant Hcp” value is 2.4e-05.
Turning to `CCCCCCCC` [octane], the “Henry solubility constant Hcp” value is 4e-06.
Consider `C1=CCCC1` [cyclopentene], for which the “Henry solubility constant Hcp” value was 0.00016.
For `C1CCCC1` [cyclopentane], the “Henry solubility constant Hcp” value is 5.5e-05.
Regarding `C#CCCCCCCC` [1-nonyne], the “Henry solubility constant Hcp” value is 9.7e-05.
With `CC(C)C(C)C` [2,3-dimethylbutane], the “Henry solubility constant Hcp” value was 7.6e-06.
Turning to `C=CC(=C)C` [2-methyl-1,3-butadiene], the “Henry solubility constant Hcp” value was 0.00013.
Consider `CC(C)CC(C)O` (stereo not given) [4-methyl-2-pentanol], for which the “Henry solubility constant Hcp” value is 0.35.
On to `CC1=CCC(=C(C)C)CC1` [1-methyl-4-(1-methylethylidene)-cyclohexene], for which the “Henry solubility constant Hcp” value is 0.00079.
Turning to `C=CCCCC=C` [1,6-heptadiene], the “Henry solubility constant Hcp” value is 5.6e-05.
For `CCCCCCO` [1-hexanol], the “Henry solubility constant Hcp” value was 0.66.
For `OC1CCCCCC1` [cycloheptanol], the “Henry solubility constant Hcp” value was 4.6.
As for `C=CCCCCCC` [1-octene], the “Henry solubility constant Hcp” value was 1.1e-05.
As to `C=CCC` [1-butene], the “Henry solubility constant Hcp” value is 4.2e-05.
In the case of `C=CC(=C)CCC=C(C)C` [7-methyl-3-methylene-1,6-octadiene], the “Henry solubility constant Hcp” value is 0.0004.
Take `C1=CCCCC1` [cyclohexene]: the “Henry solubility constant Hcp” value is 0.00022.
For the compound `C1=CC=CCC=C1` [1,3,5-cycloheptatriene], the “Henry solubility constant Hcp” value is 0.0022.
With `C#CCCCC` [1-hexyne], the “Henry solubility constant Hcp” value was 0.0003.
On to `CC(C)(C)C` [dimethylpropane], for which the “Henry solubility constant Hcp” value was 6e-06.
As for `CCCCC(C)O` (stereo not given) [2-hexanol], the “Henry solubility constant Hcp” value is 0.52.
For the compound `CC1CCC(C)(C)C1` (stereo not given) [1,1,3-trimethylcyclopentane], the “Henry solubility constant Hcp” value is 6.2e-06.
For `CCCCCCCCCC` [decane], the “Henry solubility constant Hcp” value was 1.1e-06.
`CCCCCC(C)O` (stereo not given) [2-heptanol]: the “Henry solubility constant Hcp” value was 0.41.
As for `CCC(C)c1ccccc1` (stereo not given) [(1-methylpropyl)-benzene], the “Henry solubility constant Hcp” value was 0.00053.
Consider `CC(C)C#CC(C)(C)C` [2,2,5-trimethyl-3-hexyne], for which the “Henry solubility constant Hcp” value is 5.5e-05.
With `CC=C(C)C` [2-methyl-2-butene], the “Henry solubility constant Hcp” value was 6.7e-05.
Consider `C=C(C)CCC` [2-methyl-1-pentene], for which the “Henry solubility constant Hcp” value is 3.3e-05.
On to `CC(C)C` [2-methylpropane], for which the “Henry solubility constant Hcp” value is 9.2e-06.
On to `C1=CCC=C1` [1,3-cyclopentadiene], for which the “Henry solubility constant Hcp” value is 0.00018.
Consider `Cc1ccc(C(C)C)cc1` [1-methyl-4-(1-methylethyl)-benzene], for which the “Henry solubility constant Hcp” value was 0.00096.
For the compound `c1ccc2c(c1)CCCC2` [1,2,3,4-tetrahydronaphthalene], the “Henry solubility constant Hcp” value was 0.0064.
Take `C=CCCCCCCC` [1-nonene]: the “Henry solubility constant Hcp” value was 1.2e-05.
As to `CCCCCCCCCCCCCC` [tetradecane], the “Henry solubility constant Hcp” value was 9.3e-07.
Take `CCC#CC(C)C` [2-methyl-3-hexyne]: the “Henry solubility constant Hcp” value was 0.00022.
As to `c1ccccc1` [benzene], the “Henry solubility constant Hcp” value is 0.0018.
On to `CCCCCCC(C)O` (stereo not given) [2-octanol], for which the “Henry solubility constant Hcp” value is 0.35.
For `CCCCCO` [1-pentanol], the “Henry solubility constant Hcp” value is 0.89.
Turning to `CCCCC(C)CCC` (stereo not given) [4-methyloctane], the “Henry solubility constant Hcp” value is 9.7e-07.
Turning to `CC(C)CC(C)C` [2,4-dimethylpentane], the “Henry solubility constant Hcp” value is 3.3e-06.
For `CCCCCCCCCCc1ccccc1` [decylbenzene], the “Henry solubility constant Hcp” value is 8.6e-05.
For the compound `C=C1C2CCC(C2)C1(C)C` (stereo not given) [2,2-dimethyl-3-methylene-bicyclo[2.2.1]heptane], the “Henry solubility constant Hcp” value was 0.00023.
Take `C=Cc1ccccc1` [ethenylbenzene]: the “Henry solubility constant Hcp” value is 0.0029.
For the compound `C1CC1` [cyclopropane], the “Henry solubility constant Hcp” value is 0.00012.
